Assay results taken from EP0272929B1, “Enkephalinase for therapeutic use” (GENENTECH, INC., priority 1986, dated 1988).
Like-named read-outs stand apart in the source and are kept apart here.

Tests used:
ferret trachea [1] = test: Mucus secretion from ferret tracheal segments in Ussing-type chambers (release of 35SO4-labeled macromolecules, flux of bound SO4); assay type: cell-based; conditions: for potentiation of substance P-induced secretion: 10 µg/ml each, bestatin 10⁻⁵M (Fig. 4)
Method: (§1) Mucus secretion from tracheal segments of 36 ferrets was measured using methods described earlier (Borson, D.B. et al., J. Appl. Physiol. 57: 457-466 [1984]). Briefly, after anesthetizing adult male ferrets weighing 1-2 kg with sodium pentobarbital (45-60 mg/kg, ip), the trachea was removed and washed in medium 199/Earles HCO₃ bubbled with 95% O₂ - 5% CO₂ at 38°C. Tracheal segments were mounted in plastic Ussing-type chambers connected to perfusion chambers made of siliconized glass (MRA Inc., Clearwater, Florida). After exposing both sides to medium 199, 0.167 mCi Na₂.³⁵SO₄ was added to the submucosal side. At 15 minute intervals, the medium was drained from the luminal side and replaced with fresh unlabeled medium. Each sample was placed in dialysis tubing (Spectropore no. D1615-1; MW cutoff: 12-14,000) and exhaustively dialyzed with the rest of the samples from the experiment against at least 6 changes of distilled water (4 liters each) containing excess unlabeled SO₄ and sodium azide (10 mg/L) to prevent bacterial degradation of the macromolecules. After dialysis, the bound radioactivity of each sample was determined using a Beckman Instruments beta counter (model LS 7500). Molecular weight profiles of the materials secreted were determined by first desalting samples using a Sephadex G-50 column, then concentrating carbohydrate-containing molecules on DEAE Sephacel, and determining apparent molecular size under denaturing conditions (4 M guanidine, 10mM 2-mercaptoethanol, 0.1% Triton X-100) using a Sepharose CL-6B column.
(§2) Characteristics of the response to substance P including the time course, concentration dependence, and reproducibility were studied. Tracheal segments from 8 ferrets were incubated in the presence of radiolabel for 3 hours to which were added different concentrations of substance P (10⁻⁹M to 10⁻⁵M; Peninisula Labs, Belmont, CA). […] All treatments were randomized with regard to the site of sampling in the trachea to eliminate systematic bias.
(§3) The effects of endogenous proteinases were studied by incubating at least two tissues from each of 4 ferrets for 30 minutes in medium for 2.5 hours and adding a combination of nine (9) proteinase inhibitors to the submucosal side of each tissue (10 µg/mL each). The inhibitors used included leupeptin, antipain, pepstatin A, thiorphan, substance P₁₋₉ (Growcott, J.W. and Tarpey, A.V. Eur. J. Pharm. 84: 107-109 [1982]) and the angiotensin converting enzyme inhibitor, teprotide (Peninsula labs), aprotonin, BSA, and bacitracin (Sigma). Thirty minutes after addition of inhibitor, substance P (10⁻⁶M) was added to the submucosal side. […] The mean responses to substance P in the presence of inhibitors was compared with the mean responses of two control segments from each of the same animals.
(§4) The concentration-dependence of enkephalinase inhibition was explored by adding thiorphan in different concentrations to different tissues. To determine whether the secretory effect of substance P might be mediated indirectly via the release of endogenous enkephalins, we tested the effects of met-enkephalin (Peninsula Labs) on secretory responses.
(§5) We calculated the flux of bound SO₄ (^JSO₄) from the cpm in the dialyzed samples according to the equation modified from (Corrales, R.J. et al., J. Appl. Physiol. 56: 1076-1082 [1985]): ()^J SO4 (pmol SO4 (/cm)^2 /h) =(((cpm recovered/15 min x 4) x (811 x 10)^6 pmol cold SO4 /5mL))/((0.5 cm)^2 x cpm in 5.0 mL of hot-side medium) [formula]

[2] = tested on: ferret tracheal smooth muscle; test: Electrical field stimulation-induced contraction of isolated tracheal smooth muscle; assay type: cell-based; conditions: inhibitor 10⁻⁵ M, 15 min; tachykinins 10⁻⁷ M
Method: (§6) The tracheal rings were connected to strain gauges (Grass FT03) for continuous recording of isometric tension, and the rings were placed between two rectangular platinum electrodes (6 x 40 mm) for electrical field stimulation. The rings were initially stretched to a tension of 20 g for 30 seconds and were then allowed to equilibrate for 1 hour while resting tension was adjusted to 4 g (Skoogh, B-E. et al., J. Appl. Physiol. 53: 253-257 [1982]). During equilibration, the medium was changed every 15 minutes. […] Id.
Increasing concentrations of leu-thiorphan (10⁻¹¹ to 10⁻⁴ M) were added and the stimuli repeated to determine whether leu-thiorphan modulated electrical field stimulation-induced contractions. […] After determining control responses to electrical field stimulation (5 Hz), leu-thiorphan (10⁻⁵ M; 15 min) was added, the stimulus repeated, (DPro²,DTrp^7,9)substance P, the substance P antagonist (10⁻⁵ M; 15 min; Peninisula Labs) was added, and the stimulus was repeated.
(§7) Data were expressed as mean ± SE. For the dose-response curves to tachykinins the means between two groups at each concentration were analyzed by an unpaired t test. For the study of electrical field stimulation, responses were compared by one way analysis of variance and Newman-Keuls multiple range test. Significance was accepted at p<0.05.

ferret trachea [3] = conditions: for order of potency for stimulation of secretion: each tachykinin 10⁻⁵M; for potentiation of substance P-induced secretion: substance P 10⁻⁶M
Method: as §1, §2, §3, §4, §5

[4] = tested on: ferret tracheal smooth muscle; test: Isometric tension of isolated tracheal smooth muscle rings (contraction by peptides, effect of inhibitors); assay type: cell-based
Method: (§8) Twenty-seven ferrets were anesthetized with pentobarbital sodium (45-60 mg/kg, i.p.), and the trachea were removed. Transverse rings (8 mm long) were cut from the trachea and mounted in glass chambers filled with 14 ml of Krebs-Henseleit solution of the following composition (in mMoles/L): NaCl 118, KCl 5.9, CaCl₂ 2.5, MgSO₄ 1.2, NaH₂PO4 1.2, NaHCO₃ 25.5, glucose 5.6, 0.1% bovine serum albumin, and penicillin-streptomycin (100 Units/ml). The soluiton was maintained at 37°C and was aerated continuously in a mixture of 95% O₂-5% CO₂, which produced a pH of 7.4. Six tracheal rings were studied concurrently.
as §6
The responsiveness to substance P (using concentrations ranging from 10⁻⁸ M to 10⁻⁵ M) and to leu-thiorphan and cumulative dose-response curves to substance P (Peninsula Labs) were obtained. Each succeeding concentration of substance P was added after contraction reached a plateau. After completion of the first dose-response curve to substance P, leu-thiorphan (10⁻⁵ M, Squibb Pharmaceutical) was added to the organ bath. Following a 15 minute incubation, a second dose-response curve to substance P was obtained.
The N-terminal fragment, substance P₁₋₉ was studied because enkephalinase cleaves substance P between the 9 and 10 positions (Matsas, R. et al., Proc. Natl. Acad. Sci. [USA] 80: 3111-3115 [1983]), generating that fragment. (10⁻⁵ M Peninsula Labs). Experiments were also carried out with (DPro², DTrp^7,9)-substance P (10⁻⁵ M) (Peninsula Labs), a substance P antagonist (Hakanson, R. et al., Br. J. Pharmac. 77: 697-700 [1982]) by adding the antagonist after the response to substance P (10⁻⁶ M) and leu-thiorphan (10⁻⁵ M) reached a plateau.
as §7, with “substance P,” for “tachykinins”, “compared” for “analyzed”, “a paired” for “an unpaired”, “studies” for “study”, “P < 0.05. […]” for “p<0.05.”

neutrophils = test: Neutrophil chemotaxis assay (Chemotaxis kit, 5 µm filter); assay type: cell-based; conditions: Homo sapiens, Formyl Met-Leu-Phe 1µM + inhibitor 10µM, 1 hr at 37°C, read-out: Neutrophil Migration (% control)
Method: As assay was used to test the effects of enkephalinase on neutrophil chemotaxis. A commercially available chemotactic assay (Chemotaxis kit, Neuroprobe, Cabin John, Md) was used and modified as described below. Neutrophils were isolated by sedimentation over dextran from peripheral blood of human donors. A sample of neutrophils is placed over a 5 µm filter in a chemotaxis chamber containing aliquots of test material. Three to six replicates were run for each test for 1 hr. at 37°C. The number of migrating neutrophils in each chamber is then counted. The chemotactic potential is evaluated by the number of cells in five selected unit areas.
Various specific inhibitors of enkephalinase were used to determine the role of enkephalinase in chemotaxis of neutrophils. Chemotactic activity is reported as the total number of neutrophils observed in five fields of the kit membrane under 100X magnification. Thus, the larger the number the more chemotactic was a particular test composition.

[5] = tested on: ferret tracheal smooth muscle; test: Isometric tension of isolated tracheal smooth muscle rings (contraction by peptides, effect of inhibitors); assay type: cell-based; remark: listed apart in the source
Method: as §8
as §6, with “Id. […]” for “Id.”
The methods used to excise tracheal tissue, mount and electrically stimulate the tissue were identical to those described above. The responses to tachykinins and to leu-thiorphan, cumulative dose-response curves to substance P (Peninsula Labs), neurokinin A (Peninisula Labs) and neurokinin B (Peninsula Labs) were obtained using concentrations ranging from 10⁻¹¹ M to 10⁻⁵ M in the presence and absence of leu-thiorphan (10⁻⁵ M, 15 min; Squibb Pharmaceutical). Each succeeding concentration of tachykinin was added after the previous contraction had reached a plateau.
as §7
The methods used were the same as those described in Example 7.

[6] = presence of phosphoramidon 10⁻⁵M
[7] = inhibitor 10⁻⁴M, substance P 10⁻⁶M

With `CC(C)C[C@H](NC(=O)[C@@H](O)[C@H](N)Cc1ccccc1)C(=O)O` [bestatin] the “potentiation of substance P-induced secretion” value (ferret trachea [1]; substance P 10⁻⁶M) was “failed to potentiate substance P-induced secretion” and the “potentiation of the response to electrical field stimulation in the presence of substance P, neurokinin A or neurokinin B” value [2] was “did not”.
In the case of kassinin, the “order of potency for stimulation of secretion” value (from here on “order of potency”) (ferret trachea [3]; absence of phosphoramidon) is reported as “substance P> physalaemin=eledoisin=kassinin > neurokinin A” and the “order of potency” value (ferret trachea [3]; [6]) is reported as “Substance P=neurokinin A=physalaemin=eledoisin=kassinin>neurokinin B”.
With `C[C@H](CS)C(=O)N1CCC[C@H]1C(=O)O` [captopril] the activation at 100 µM (ferret trachea [1]; Mustela putorius, inhibitor 10⁻⁴M (Fig. 4), substance P 10⁻⁶M, not significantly different from control, read-out: potentiation of substance P-induced secretion) was 44 ± 27% and the “potentiation of the response to electrical field stimulation in the presence of substance P, neurokinin A or neurokinin B” value [2] was “did not”.
`CN1[C@@H]2CC[C@H]1C[C@@H](OC(=O)C(CO)c1ccccc1)C2` (some centres unmarked) [atropine] was tested, and the “effect on SP plus leu-thiorphan-induced contractions” value [4] was “decreased SP plus leu-thiorphan-induced contractions significantly”.
In the case of bacitracin, the “potentiation of substance P-induced secretion” value (ferret trachea [3]; 10 µg/ml each, bestatin 10⁻⁵M (Fig. 4)) is reported as “failed to potentiate substance P-induced secretion”.
teprotide was tested, and the “potentiation of substance P-induced secretion” value (ferret trachea [3]; inhibitor 10⁻⁴M (Fig. 4), not significantly different from control) was 49 ± 39%.
With `O=C(O)CNC(=O)C(CS)Cc1ccccc1` (centres unmarked) [thiorphan] the “increase in flux of bound SO₄ by the inhibitor by itself” value (ferret trachea [1]; 10⁻⁴M, submucosal side) was 57 ± 17.8 pmol bound SO₄/cm²/h, the minimal effective concentration (ferret trachea [1]; Mustela putorius, substance P 10⁻⁶M, read-out: threshold of potentiation of the secretory response to substance P) was ~0.01 µM and the “response to substance P, % of control” value (ferret trachea [1]; [7]) was 502 ± 147%. The “substance P-induced increase in flux of bound SO₄ in inhibitor-pretreated tissue” value (ferret trachea [1]; [7]) was 268.0 ± 58.0 pmol/cm²/h, the “sum of the individual effects as % of the response to substance P in the presence of the inhibitor” value (ferret trachea [1]; test of additivity) was 51% and the “sum of the individual effects of substance P and inhibitor” value (ferret trachea [1]; test of additivity) was 136.2 pmol bound SO₄/cm²/h. It also gave an activity at 10 µM (neutrophils) of 29 ± 19%.
For `CC(C)C[C@H](NP(=O)(O)O[C@@H]1O[C@@H](C)[C@H](O)[C@@H](O)[C@H]1O)C(=O)N[C@@H](Cc1c[nH]c2ccccc12)C(=O)O` [phosphoramidon], the “effect on secretory responses to each tachykinin” value (ferret trachea [1]; 10⁻⁵M, 30 min pretreatment, tachykinins 10⁻⁵M) was “significantly increased”, the “substance P-induced increase in flux in inhibitor-treated tissues” value (ferret trachea [1]; inhibitor 10⁻⁵M, substance P 10⁻⁶M) was 357 ± 91.9 pmol bound SO₄/cm²/h and the activity at 10 µM (neutrophils) was 65%.
“bradykinin (RPPGFSPFR; Bradykinin; UniProt P01042 381-389, looked up)” was tested, and the “contraction” value ([5]; 10⁻¹¹ to 10⁻⁵ M) was “caused contraction in a dose-dependent fashion”, the relative contractile potency ([5]; absence of enkephalinase inhibitors) was “more potent that lys-bradykinin” and the relative contractile potency ([5]; presence of Leu-thiorphan) was “equally potent”.
With `CC(=O)N[C@@H](CC(C)C)C(=O)N[C@@H](CC(C)C)C(=O)N[C@H](C=O)CCCNC(=N)N` [leupeptin] the “potentiation of substance P-induced secretion” value (ferret trachea [1]; substance P 10⁻⁶M) was “failed to potentiate substance P-induced secretion” and the “potentiation of the response to electrical field stimulation in the presence of substance P, neurokinin A or neurokinin B” value [2] was “did not”.
For eledoisin, the “order of potency” value (ferret trachea [3]; absence of phosphoramidon) was “substance P> physalaemin=eledoisin=kassinin > neurokinin A” and the “order of potency” value (ferret trachea [3]; [6]) was “Substance P=neurokinin A=physalaemin=eledoisin=kassinin>neurokinin B”.
For `CSCC[C@H](NC(=O)[C@H](CC(C)C)NC(=O)CNC(=O)[C@H](Cc1ccccc1)NC(=O)[C@H](Cc1ccccc1)NC(=O)[C@H](CCC(N)=O)NC(=O)[C@H](CCC(N)=O)NC(=O)[C@@H]1CCCN1C(=O)[C@H](CCCCN)NC(=O)[C@@H]1CCCN1C(=O)[C@@H](N)CCCNC(=N)N)C(N)=O` [substance P], the “flux of bound SO₄ above the pre-stimulus baseline” value (ferret trachea [3]; 10 µM) was 155 ± 42%.
In the case of physalaemin, the “order of potency” value (ferret trachea [3]; absence of phosphoramidon) is reported as “substance P> physalaemin=eledoisin=kassinin > neurokinin A” and the “order of potency” value (ferret trachea [3]; [6]) is reported as “Substance P=neurokinin A=physalaemin=eledoisin=kassinin>neurokinin B”.
